Tested on: HBsAg
Assay: HBsAg assay (CLIA) in HepG2.2.15 cells
Assay type: cell-based, HBV
Conditions: Hepatitis B virus, HepG2.2.15, read-out: IC50 (HBsAg assay)
Description: HepG2.2.15 cells (Acs et al. Proc Natl Acad Sci USA, 84, (1987), 4641-4), a constitutively HBV-expressing cell line were cultured in DMEM+Glutamax-I medium (Invitrogen, Carlsbad, Calif., USA), supplemented with 10% fetal bovine serum (Invitrogen) and G418 (Invitrogen) at a final concentration of 200 mg/L and maintained in 5% CO2 at 37° C.
HepG2.2.15 cells were seeded in duplicate into white, 96-well plates at 1.5×10^4 cells/well. The cells were treated with a three-fold serial dilution series of the compounds in DMSO. The final DMSO concentration in all wells was 1% and DMSO was used as no drug control.
The HBsAg chemiluminescence immunoassay (CLIA) kit (Autobio Diagnostics Co., Zhengzhou, China, Catalog number: CL0310-2) was used to measure the levels of secreted HBV antigens semi-quantitatively. For the detection 50 μL/well culture supernatant was used and HBsAg was quantified using HBsAg chemiluminescence immunoassay (CLIA) kit (Autobio Diagnostics Co., Zhengzhou, China, Catalog number: CL0310-2), 50 μL of the supernatant was transferred to the CLIA assay plate and 50 μL of enzyme conjugate reagent was added into each well. The plates were sealed and gently agitated for 1 hour at room temperature. The supernatant-enzyme-mixture was discarded and wells were washed 6 times with 300 μL of PBS. The residual liquid was removed by plating the CLIA plate […] on absorbent tissue paper. 25 μL of substrates A and B were added to each well. Luminance was measured using a luminometer (Mithras LB 940 Multimode Microplate Reader) after 10 minutes incubation. Dose-response curves were generated and the IC50 value was extrapolated by using the E-WorkBook Suite (ID Business Solutions Ltd., Guildford, UK). The IC50 was defined as the compound concentration (or conditioned media log dilution) at which HBsAg secretion was reduced by 50% compared to the no drug control.
The compounds according to formula I were tested for their capacity to inhibit HBsAg as described herein.

CNc1nc(-c2ccccn2)nc2c1CN(c1ccc(S(C)(=O)=O)cc1)CC2 [Example 88]
IC50: 26400 nM

COCCOc1cc(N2CCc3nc(-c4ccccn4)ncc3C2)cc(F)c1F [Example 23, 6-[3,4-difluoro-5-(2-methoxyethoxy)phenyl]-2-(2-pyridyl)-7,8-dihydro-5H-pyrido[4,3-d]pyrimidine]
IC50: 549 nM

FC(F)(F)Oc1cccc(N2CCc3nc(-c4ncccn4)ncc3C2)c1 [Example 43, 2-pyrimidin-2-yl-6-[3-(trifluoromethoxy)phenyl]-7,8-dihydro-5H-pyrido[4,3-d]pyrimidine]
IC50: 1860 nM

O=C(NCCCCCO)c1cc(F)cc(N2CCc3nc(-c4ncccn4)ncc3C2)c1 [Example 107, 3-fluoro-N-(5-hydroxypentyl)-5-(2-pyrimidin-2-yl-7,8-dihydro-5H-pyrido[4,3-d]pyrimidin-6-yl)benzamide]
IC50: 7120 nM

Fc1cc(N2CCc3nc(-c4ccccn4)ncc3C2)ccc1Br [Example 52, 6-(4-bromo-3-fluoro-phenyl)-2-(2-pyridyl)-7,8-dihydro-5H-pyrido[4,3-d]pyrimidine]
IC50: 1970 nM

COc1nc(N2CCc3nc(-c4ccccn4)ncc3C2)ncc1Cl [Example 68, 6-(5-chloro-4-methoxy-pyrimidin-2-yl)-2-(2-pyridyl)-7,8-dihydro-5H-pyrido[4,3-d]pyrimidine]
IC50: 1470 nM

COc1cc(F)c(F)cc1N1CCc2nc(-c3ccccn3)ncc2C1 [Example 27, 6-(4,5-difluoro-2-methoxy-phenyl)-2-(2-pyridyl)-7,8-dihydro-5H-pyrido[4,3-d]pyrimidine]
IC50: 3160 nM

COc1cc(N2CCc3nc(-c4ncccn4)ncc3C2)cc(F)c1Cl [Example 78, 6-(4-chloro-3-fluoro-5-methoxy-phenyl)-2-pyrimidin-2-yl-7,8-dihydro-5H-pyrido[4,3-d]pyrimidine]
IC50: 19000 nM

Fc1ccc(N2CCc3nc(-c4ccccn4)ncc3C2)cc1F [Example 10, 6-(3,4-difluorophenyl)-2-(2-pyridyl)-7,8-dihydro-5H-pyrido[4,3-d]pyrimidine]
IC50: 2690 nM

CC1CN(c2ccc([N+](=O)[O-])cc2)Cc2cnc(-c3ccccn3)nc21 (stereo not drawn) [Example 48, 8-methyl-6-(4-nitrophenyl)-2-(2-pyridyl)-7,8-dihydro-5H-pyrido[4,3-d]pyrimidine]
IC50: 1380 nM

COCCCNC(=O)c1cc(F)cc(N2CCc3nc(-c4ncccn4)ncc3C2)c1 [Example 106, 3-fluoro-N-(3-methoxypropyl)-5-(2-pyrimidin-2-yl-7,8-dihydro-5H-pyrido[4,3-d]pyrimidin-6-yl)benzamide]
IC50: 1340 nM

CCCOc1cc(N2CCc3nc(-c4ccccn4)ncc3C2)cc(F)c1F [Example 22, 6-(3,4-difluoro-5-propoxy-phenyl)-2-(2-pyridyl)-7,8-dihydro-5H-pyrido[4,3-d]pyrimidine]
IC50: 750 nM

COc1ccc(N2CCc3nc(-c4ccccn4)ncc3C2)cc1OC [Example 59, 6-(3,4-dimethoxyphenyl)-2-(2-pyridyl)-7,8-dihydro-5H-pyrido[4,3-d]pyrimidine]
IC50: 9060 nM

Fc1ccc(N2CCc3nc(-c4ccccn4)ncc3C2)cc1Br [Example 51, 6-(3-bromo-4-fluoro-phenyl)-2-(2-pyridyl)-7,8-dihydro-5H-pyrido[4,3-d]pyrimidine]
IC50: 5360 nM

COc1cc(N2CCc3nc(-c4ncccn4)ncc3C2)cc(F)c1F [Example 26, 6-(3,4-difluoro-5-methoxy-phenyl)-2-pyrimidin-2-yl-7,8-dihydro-5H-pyrido[4,3-d]pyrimidine]
IC50: 61 nM

COc1cc(N2CCc3nc(-c4ccccn4)ncc3C2)ccc1C#N [Example 60, 2-methoxy-4-[2-(2-pyridyl)-7,8-dihydro-5H-pyrido[4,3-d]pyrimidin-6-yl]benzonitrile]
IC50: 371 nM

COc1cc(N2CCc3nc(-c4ccccn4)ncc3C2)ccc1F [Example 90, 6-(4-fluoro-3-methoxy-phenyl)-2-(2-pyridyl)-7,8-dihydro-5H-pyrido[4,3-d]pyrimidine]
IC50: 933 nM

COc1nc(-c2ccccn2)nc2c1CN(c1ccc(S(C)(=O)=O)cc1)CC2 [Example 81]
IC50: 11300 nM

COc1c(N2CCc3nc(-c4ncccn4)ncc3C2)ccc(F)c1F [Example 30, 6-(3,4-difluoro-2-methoxy-phenyl)-2-pyrimidin-2-yl-7,8-dihydro-5H-pyrido[4,3-d]pyrimidine]
IC50: 9490 nM

CCc1nc(-c2ccccn2)nc2c1CN(c1ccc(S(C)(=O)=O)cc1)CC2 [Example 86]
IC50: 22100 nM

CS(=O)(=O)c1ccc(N2CCc3nc(-c4ccc(Cl)cn4)ncc3C2)cc1 [Example 6, 2-(5-chloro-2-pyridyl)-6-(4-methylsulfonylphenyl)-7,8-dihydro-5H-pyrido[4,3-d]pyrimidine]
IC50: 18800 nM

COc1cc(N2CCc3nc(-c4ncccn4)ncc3C2)cc(Cl)c1F [Example 79, 6-(3-chloro-4-fluoro-5-methoxy-phenyl)-2-pyrimidin-2-yl-7,8-dihydro-5H-pyrido[4,3-d]pyrimidine]
IC50: 288 nM

COc1cc(N2CCc3cc(-c4ncccn4)ncc3C2)cc(F)c1F [Example 95, 2-(3,4-difluoro-5-methoxy-phenyl)-6-pyrimidin-2-yl-3,4-dihydro-1H-2,7-naphthyridine]
IC50: 61 nM

COc1ncc(Cl)c(N2CCc3nc(-c4ccccn4)ncc3C2)n1 [Example 69, 6-(5-chloro-2-methoxy-pyrimidin-4-yl)-2-(2-pyridyl)-7,8-dihydro-5H-pyrido[4,3-d]pyrimidine]
IC50: 999 nM

COc1cc(Cl)nc(N2CCc3nc(-c4ncccn4)ncc3C2)c1 [Example 108, 6-(6-chloro-4-methoxy-2-pyridyl)-2-pyrimidin-2-yl-7,8-dihydro-5H-pyrido[4,3-d]pyrimidine]
IC50: 263 nM

Cc1cc(F)cc(N2CCc3nc(-c4ccccn4)ncc3C2)c1 [Example 40, 6-(3-fluoro-5-methyl-phenyl)-2-(2-pyridyl)-7,8-dihydro-5H-pyrido[4,3-d]pyrimidine]
IC50: 669 nM

COc1cc(OC)cc(N2CCc3nc(-c4ncccn4)ncc3C2)c1 [Example 73, 6-(3,5-dimethoxyphenyl)-2-pyrimidin-2-yl-7,8-dihydro-5H-pyrido[4,3-d]pyrimidine]
IC50: 1960 nM

COc1cc(N2CCc3nc(-c4ncccn4)ncc3C2)cc(C(F)(F)F)c1 [Example 100, 6-[3-methoxy-5-(trifluoromethyl)phenyl]-2-pyrimidin-2-yl-7,8-dihydro-5H-pyrido[4,3-d]pyrimidine]
IC50: 278 nM

Fc1cc(F)nc(N2CCc3nc(-c4ncccn4)ncc3C2)c1 [Example 110, 6-(4,6-difluoro-2-pyridyl)-2-pyrimidin-2-yl-7,8-dihydro-5H-pyrido[4,3-d]pyrimidine]
IC50: 1440 nM

CCCc1nc(-c2ccccn2)nc2c1CN(c1ccc(S(C)(=O)=O)cc1)CC2 [Example 85]
IC50: 8290 nM

COc1cccc(-c2ncc3c(n2)CCN(c2cc(F)c(F)c(OC)c2)C3)n1 [Example 25, 6-(3,4-difluoro-5-methoxy-phenyl)-2-(6-methoxy-2-pyridyl)-7,8-dihydro-5H-pyrido[4,3-d]pyrimidine]
IC50: 16000 nM

Fc1cc(N2CCc3nc(-c4ccccn4)ncc3C2)cc(OCc2ccccc2)c1F [Example 20, 6-(3-benzyloxy-4,5-difluoro-phenyl)-2-(2-pyridyl)-7,8-dihydro-5H-pyrido[4,3-d]pyrimidine]
IC50: 2840 nM

COCCCOc1cc(N2CCc3nc(-c4ccccn4)ncc3C2)cc(F)c1F [Example 19, 6-[3,4-difluoro-5-(3-methoxypropoxy)phenyl]-2-(2-pyridyl)-7,8-dihydro-5H-pyrido[4,3-d]pyrimidine]
IC50: 461 nM

CCOc1nc(-c2ccccn2)nc2c1CN(c1ccc(S(C)(=O)=O)cc1)CC2 [Example 82]
IC50: 3350 nM

c1ccc(-c2ncc3c(n2)CCN(c2cccnc2)C3)nc1 [Example 39, 2-(2-pyridyl)-6-(3-pyridyl)-7,8-dihydro-5H-pyrido[4,3-d]pyrimidine]
IC50: 9120 nM

COc1cc(F)cc(N2CCc3nc(-c4ncccn4)ncc3C2)n1 [Example 111, 6-(4-fluoro-6-methoxy-2-pyridyl)-2-pyrimidin-2-yl-7,8-dihydro-5H-pyrido[4,3-d]pyrimidine]
IC50: 362 nM

COc1cc(N2CCc3nc(-c4ncccn4)ncc3C2)cc(F)n1 [Example 112, 6-(2-fluoro-6-methoxy-4-pyridyl)-2-pyrimidin-2-yl-7,8-dihydro-5H-pyrido[4,3-d]pyrimidine]
IC50: 553 nM

COc1ccc(N2CCc3nc(-c4ccccn4)ncc3C2)cc1 [Example 50, 6-(4-methoxyphenyl)-2-(2-pyridyl)-7,8-dihydro-5H-pyrido[4,3-d]pyrimidine]
IC50: 21900 nM

COC(=O)c1cc(F)cc(N2CCc3nc(-c4ncccn4)ncc3C2)c1 [Example 102, methyl 3-fluoro-5-(2-pyrimidin-2-yl-7,8-dihydro-5H-pyrido[4,3-d]pyrimidin-6-yl)benzoate]
IC50: 11900 nM

Reference: US10196391B2 (Hoffmann-La Roche Inc., priority 2014, dated 2019)
